# Measured values as given in patent EP0922770B1, “A microbiological process for the transformation of 17beta-carboxy substituted 3-oxo-4-azasteroids and the use of such products as inhibitors of the enzyme 5alpha-reductase” (POLI INDUSTRIA CHIMICA S.p.A., priority 1994, dated 1996).
# Target: enzyme 5α-reductase
# Assay: enzymatic in vitro method described in WO/9413691 (5α-reductase inhibition)
# Format: biochemical
# Conditions: for IC50: concentration inhibiting by 50% the enzymatic activity, Finasteride as control product; for inhibiting activity on the enzyme 5α-reductase: verbal assessment, compared with Finasteride
# Excerpt: The three monohydroxylated products obtained by biotransformation of the azasteroid moiety using Penicillium sp. have biological activity on the enzyme 5α-reductase. For this purpose, the enzymatic in vitro method described in WO/9413691, published on June 23, 1994 has been used.
IC50 [nM],inhibiting activity on the enzyme 5α-reductase,SMILES
37,,"CC(C)(C)NC(=O)[C@H]1CC[C@H]2[C@@H]3CC[C@H]4NC(=O)C=C[C@]4(C)[C@H]3CC[C@]12C [Finasteride, reference compound]"
195,poorly active,"CC(C)(C)NC(=O)[C@H]1CC[C@H]2[C@@H]3C[C@H](O)C4NC(=O)CC[C@]4(C)[C@H]3CC[C@]12C (stereo partly drawn) [Product 1, 17β-t-butylcarbamoyl-6a-hydroxy-4-azaandrostan-3-one]"
35,strong inhibiting activity,"CC(C)(C)NC(=O)[C@H]1C[C@H](O)[C@H]2[C@@H]3CCC4NC(=O)CC[C@]4(C)[C@H]3CC[C@@]21C (stereo partly drawn) [Product 2, 17β-t-butylcarbamoyl-15a-hydroxy-4-azaandrostan-3-one]"
35,strong inhibiting activity,"CC(C)(C)NC(=O)[C@H]1C[C@@H](O)[C@H]2[C@@H]3CCC4NC(=O)CC[C@]4(C)[C@H]3CC[C@@]21C (stereo partly drawn) [Product 3, 17β-t-butylcarbamoyl-15β-hydroxy-4-azaandrostan-3-one]"
